Test results taken from patent US20080280920A1, “Plasminogen Activator Inhibitor-1 Inhibitors” (priority 2005, published 2008).

Target: T1, wildtype human PAI-1 (Homo sapiens, UniProt P05121)
T1 construct: purchased Molecular Innovations Lot# HWT-804
Assay: PAI-1/uPA assay (residual uPA activity, fluorescent substrate SpectroFluor)
Type: biochemical
Details: for Percent PAI-1 inhibition: at the concentration given, percent of activity of untreated PAI-1; for Conc. of compound required for PAI-1 inhibition: concentration giving the percent inhibition, 6 nM PAI-1, 8 nM uPA; for Conc. of compound required for PAI-1 inhibition (result in words): within the concentration range tested
Method: Principle: The assay is based on using a fluorescent substrate (SpectroFluor) to measure residual uPA following inhibition of uPA by PAI-1. PAI-1 used in the assay is pre-treated in the presence of increasing concentrations of the lead compounds to screen for any inhibitory effects on PAI-1. Method: This assay was performed in 96 well microtiter plates. The concentrations of uPA (8 nM) and PAI-1 (6 nM) used in this assay were carefully optimized when using the fluorescent substrate, SpectroFluor™. Stock solutions (10 mM) of all lead compounds were prepared fresh in DMSO. […] 20 μl of 6 nM wildtype human PAI-1 (Molecular Innovations, Lot# HWT-804) was incubated for 15-20 minutes at room temperature in 96 well microtiter plates either with buffer, (50 mM HEPES, 150 mM NaCl, 0.05% Tween-20, 1% BSA, pH 6.6) or various concentrations (10 nM to 100 μM final concentration) of lead compounds in a total volume of 80 μl. A 20 μl aliquot of 8 nM uPA (HMW) solution in 0.05M Tris Buffered™ saline (TBS), pH 8.4 was added to each well and the mixture incubated for an additional 5 minutes at RT. The proteolytic reaction was initiated by addition of 50 μl of 0.1 mM SpectroFluor (Spectrozyme UK Fluorogenic substrate) to each well. The kinetics of the free chromophore, 7-amino-4-methylcoumarin (AMC) released in the course of peptide cleavage by the protease, uPA, was monitored for 30 minutes at 37° C. on a spectrofluorometric microplate reader with an excitation wavelength of 360 nm and emission wavelength of 440 nm. Kinetic data regarding the rate of substrate cleavage by uPA was acquired with Softmax PrO™ software. The difference between the residual uPA activity in the presence or absence of untreated PAI-1, at the molar ratio used, was considered as the “total” PAI-1 activity (100%). The inhibition of uPA by PAI-1 treated with lead compounds was expressed as a percentage of the initial activity of untreated PAI-1. Controls were performed during each experiment to ensure the nearly complete inhibition of uPA by untreated PAI-1 and also to ensure the absence of any direct effect of the lead compounds on uPA alone or on SpectroFluor.

T1 sequence (P05121 24-402): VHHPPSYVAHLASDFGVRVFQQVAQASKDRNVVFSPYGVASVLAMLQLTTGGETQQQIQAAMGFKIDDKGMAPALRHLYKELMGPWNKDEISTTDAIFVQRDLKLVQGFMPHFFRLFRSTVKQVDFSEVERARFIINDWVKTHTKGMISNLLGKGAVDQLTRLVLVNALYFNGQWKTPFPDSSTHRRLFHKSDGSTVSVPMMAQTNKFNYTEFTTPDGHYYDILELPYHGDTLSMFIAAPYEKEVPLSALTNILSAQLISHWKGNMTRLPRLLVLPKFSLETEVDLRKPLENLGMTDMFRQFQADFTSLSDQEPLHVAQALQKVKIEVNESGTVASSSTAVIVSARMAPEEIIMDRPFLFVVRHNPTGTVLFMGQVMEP

Structure (SMILES) | Percent PAI-1 inhibition | Conc. of compound required for PAI-1 inhibition [µM] | Conc. of compound required for PAI-1 inhibition (result in words)
CCOC(=O)[C@H](Cc1csc2ccccc12)NC(=O)[C@@H]1CCCN(C(=O)OC(C)(C)C)C1 [Compound Q012126, (2S)-3-(thianaphthen-3-yl)-2-({[(3R)—N-t-butyloxycarbonylpiperidin-3-yl]carbonyl}amino)propanoic acid ethyl ester] | 19 | 50 | –
COc1cc(CNc2ccccn2)cc(CN2CCN(c3ccccn3)CC2)c1O [Compound Q012143] | 22 | 250 | –
O=C(N[C@@H](Cc1csc2ccccc12)C(=O)O)[C@@H]1CCCNC1 [Compound Q012129, (2S)-3-(thianaphthen-3-yl)-2-({[(3R)-piperidin-3-yl]carbonyl}amino)propanoic acid] | 23 | 1 | –
CC(C)(C)OC(=O)N1CCC[C@@H](C(=O)N[C@@H](Cc2csc3ccccc23)C(=O)O)C1 [Compound Q012128, (2S)-3-(thianaphthen-3-yl)-2-({[(3R)—N-t-butyloxycarbonylpiperidin-3-yl]carbonyl}amino)propanoic acid] | 14.5 | 10 | –
CCOC(=O)[C@H](Cc1csc2ccccc12)NC(=O)[C@@H]1CCCNC1 [Compound Q012127, (2S)-3-(thianaphthen-3-yl)-2-({[(3R)-piperidin-3-yl]carbonyl}amino)propanoic acid ethyl ester] | 13 | 250 | –
Cl.O=C(N[C@@H](Cc1csc2ccccc12)C(=O)O)c1cncc(Br)c1 [Compound Q011265, (S)—N-(5-bromonicotinoyl)-3-(thianaphthen-3-yl)alanine hydrochloride] | 20 | 1 | –
COc1cc(/C=C/C(=O)CC(=O)/C=C/c2ccc(O)c(OC)c2)ccc1O [Curcumin, curcumin, reference compound] | 22 | 0.5 | –
N=C(N)N1CCC[C@@H](C(=O)N[C@@H](Cc2csc3ccccc23)C(=O)O)C1 [Compound Q012130, (2S)-3-(thianaphthen-3-yl)-2-({[(3R)—N-[amino(imino)methyl]piperidin-3-yl]carbonyl}amino)propionic acid] | – | – | No inhibition
CCOC(=O)[C@H](Cc1csc2ccccc12)NC(=O)COc1ccc2c(C)cc(=O)oc2c1 [Compound Q012055, (S)—N-[(4-methyl-2-oxo-2H-chromen-7-yl)oxyacetyl]-3-(thianaphthen-3-yl)alanine ethyl ester] | 51 | 0.05 | –
O=C(COc1ccc2c(C(F)(F)F)cc(=O)oc2c1)N[C@@H](Cc1csc2ccccc12)C(=O)O [Compound Q012125, (2S)-2-({[2-oxo-4-(trifluoromethyl)-2H-chromen-7-yl]oxy}acetyl)amino-3-(thianaphthen-3-yl)propanoic acid] | – | – | No inhibition
CCOC(=O)[C@H](Cc1csc2ccccc12)NC(=O)COc1ccc2c(C(F)(F)F)cc(=O)oc2c1 [Compound Q012124, (2S)-2-({[2-oxo-4-(trifluoromethyl)-2H-chromen-7-yl]oxy}acetyl)amino-3-(thianaphthen-3-yl)propanoic acid ethyl ester] | 13 | 0.05 | –
CC(C)(C)OC(=O)Nc1ccc(O)c(C(=O)NCCO)c1 [Compound Q012021B, tert-Butyl 4-hydroxy-3-{[(2-hydroxyethyl)amino]carbonyl}phenylcarbamate] | 25 | 10 | –
COc1cc(CNCCc2ccccn2)cc(CN2CCN(c3ccccn3)CC2)c1O [Compound Q012119T, 2-Methoxy-4-({[2-(pyridin-2-yl)ethyl]amino}methyl)-6-[(4-pyridin-2-ylpiperazin-1-yl)methyl]phenol] | – | – | No inhibition

Next, values leading:

Percent PAI-1 inhibition | Conc. of compound required for PAI-1 inhibition [µM] | Conc. of compound required for PAI-1 inhibition (result in words) | Structure (SMILES)
– | – | No inhibition | COc1cc(/C=C2\NC(=O)N(Cc3ccc(O)cc3)C2=O)cc(CN2CCN(C)CC2)c1O [Compound Q013024]
– | – | No inhibition | O=C1N/C(=C\c2c[nH]c3ccccc23)C(=O)N1Cc1ccccc1 [Compound Q013019]
– | – | No inhibition | O=C(O)c1cc(/C=C2\NC(=O)N(Cc3ccccc3)C2=O)ccc1O [Compound Q013012, 5-[(Z)-(1-benzyl-2,5-dioxoimidazolidin-4-ylidene)methyl]-2-hydroxybenzoic acid]
41 | 1 | – | Cc1cc(=O)oc2cc(OCC(=O)N[C@@H](Cc3csc4ccccc34)C(=O)O)ccc12 [Compound Q012055A, (S)—N-[(4-methyl-2-oxo-2H-chromen-7-yl)oxyacetyl]-3-(thianaphthen-3-yl)alanine]
25 | 1 | – | CN(C)CCSc1ccc(/C=C2\NC(=O)N(Cc3ccc(OCc4ccccc4)cc3)C2=O)s1 [Compound Q013021]
15 | 50 | – | COc1cc(CNCc2ccc(C(=O)O)cc2)cc(CN2CCN(c3ccccn3)CC2)c1O [Compound Q012136]
35 | 10 | – | CN1C(=N)N/C(=C\c2csc3ccccc23)C1=O [Compound Q012038]
– | – | No inhibition | O=C1N/C(=C\c2csc3ccccc23)C(=O)N1Cc1csc2ccccc12 [Compound Q013018]
– | – | No inhibition | COc1cc(CN[C@@H](Cc2ccccc2)C(=O)O)cc(CN2CCN(c3ccccn3)CC2)c1O [Compound Q012148]
44 | 10 | – | CCOC(=O)[C@H](Cc1ccccc1)NC(=O)Nc1ccc2c(C)cc(=O)oc2c1 [Compound Q012053, (2S)-2-({[(4-Methyl-2-oxo-2H-chromen-7-yl)amino]carbonyl}amino)-3-phenylpropanoic acid ethyl ester]
– | – | No inhibition | COc1cc(CNc2ccc(C(=O)O)cc2)cc(CN2CCN(c3ccccn3)CC2)c1O [Compound Q012146]
